Assay results reported in patent US20240148835A1, “TREATING DISORDERS ASSOCIATED WITH DYRK1A DYSFUNCTION” (UNIVERSITY OF FLORIDA RESEARCH FOUNDATION, INCORPORATED, priority 2021, published 2024).
“Also recorded” adds a separate entry of the source.

System: neonatal cHets
Assay: Neonatal GSK3 inhibitor SB216763 treatment: cortex mass, isotropic fractionator cell number and density
Type: in vivo, mouse
Experimental: We utilized the previously mentioned neonatal paradigm to inject cHets daily with GSK3 inhibitor SB216763 or vehicle from P0 to P7 (FIG. 25A).
(1-3)IGF-1 was acquired from VWR/Bachem (catalog #H-2468.1000) and dissolved in saline with 0.01% BSA fresh every day. Intraperitoneal injections of 10 mg kg′ (1-3)IGF-1 or vehicle were delivered daily at 8 a.m. starting on P14 and ending on P85. […] The S6K1 inhibitor PF-4708671 was acquired from Medkoo Biosciences (#406432) dissolved in 10% DMSO, 10% tween 80 and 80% water. (1-3)IGF-1 (10 mg kg′) and PF-4708671 (50 mg kg^−1) or vehicle were injected subcutaneously into pups from P0 to P7. Rapamycin was acquired from LC laboratories (R-5000) and dissolved in 4% ethanol, 5% tween-80, and 5% PEG400 in PBS. (1-3)IGF-1 (10 mg kg′) and Rapamycin (1 mg kg′) or vehicle were injected subcutaneously into pups from P0 to P7. SB216763 was acquired from TOCRIS (#1616) and dissolved in 5% DMSO and 0.9% saline in dH20. SB216763 (0.5 mg kg′) was injected subcutaneously into pups from P0 to P7.
Adult animals were perfused with 4% PFA, and pups underwent rapid decapitation and dissection. Brains were fixed in 4% PFA for one week, and then the cortex was dissected out and dissociated in a 7 ml glass tissue homogenizer (Kontes Glass) in dissociation buffer (1% Triton X-100 in 40 mM sodium citrate). 1 ml of nuclei was removed and stained with 1:50 DAPI (Invitrogen, catalog #D3571) before being loaded onto a hemocytometer (Fisher Scientific, catalog #0267110). Per animal, 6 technical replicates of 10 μl nuclei were imaged and counted in the hemocytometer (0.1 μl nuclei counted per technical replicate). After calculating the total cell number per cortex, the number of cells was divided by mg of cortex to obtain density.

[1] = 0.5 mg kg subcutaneous daily P0 to P7

In the case of `Cn1cc(C2=C(c3ccc(Cl)cc3Cl)C(=O)NC2=O)c2ccccc21` [SB216763], the cellular density [1] is reported as “no effect on cellular density; also recorded: unaltered by any genotype or treatment”, the “cortex mass of controls” value [1] is reported as “no effect; also recorded: unaltered by treatment” and the “cortical cell number of cHets” value [1] is reported as “restored the decreased cellular number; also recorded: restored by SB216763 treatment”. For the same compound, the “cortical cell number of controls” value [1] was “no effect on SB216763-treated controls” and the “cortex mass of cHets” value (0.5 mg kg subcutaneous daily P0 to P7, vs vehicle-treated controls) was “normalized cortex mass; also recorded: restored by treatment with SB216763”.
